# “Also recorded” adds a separate entry of the source.
# Experiments:
# [1] = tested on: X-ALD fibroblasts
# [2] = tested on: rat primary microglia, oligodendrocytes and C6 glial cells; assay: TNF-α-induced ceramide production in rat primary microglia, oligodendrocytes and C6 glial cells; format: cell-based; settings: 10 mM NAC 1 h, TNF-α 50 ng/ml
# [3] = tested on: rat primary oligodendrocytes; assay: Apoptosis (DNA fragmentation, laddering) in rat primary oligodendrocytes; format: cell-based; settings: 10 mM NAC 1 h; diamide 0.5 mM, TNF-α 50 ng/ml or C2-ceramide; 12 h
# Method: Detection of DNA fragmentation Cells (1×10^6) were pelleted in an eppendorf tube by centrifugation at 1,000 rpm for 5 min, washed with PBS (pH 7.4), resuspended gently in 50 μl of a lysis buffer [200 mM NaCl, 10 mM Tris-HCl (pH 8.0), 40 mM EDTA (pH 8.0), 0.5% SDS, 400 ng RNase A/μl] and incubated at 37° C. for 1 h. The lysate received 200 μl of the digestion buffer [200 mM NaCl, 10 mM Tris-HCl (pH 8.0), 0.5% SDS, 125 ng proteinase K/μl]. The contents were mixed by inversion several times and then incubated at 50° C. for 2 h. An equal volume of a mixture phenol (pH 8.0), chloroform and isoamyl alcohol (25:24:1, v/v) was added, gently mixed for 10 min, and stored at room temperature for 2 min. […] The gel was stained with ethidium bromide and DNA-intercalated ethidium fluorescence was photographed on Polaroid film 665 (P/N) using an orange filter. […]
# Detection of DNA Fragmentation Cells (1×10^6) were pelleted in an Eppendorf tube by centrifugation at 1000 rpm for 5 min, washed with phosphate-buffered saline, pH 7.4, resuspended gently in 50 μl of a lysis buffer (200 mM NaCl, 10 mM Tris-HCl, pH 8.0, 40 mM EDTA, pH 8.0, 0.5% SDS, 400 ng of RNase A/μl), and incubated at 37° C. for 1 h. […] The gel was stained with ethidium bromide, and DNA-intercalated ethidium fluorescence was photographed on Polaroid film 665 (P/N) using an orange filter. […]
# [4] = tested on: TNF-α production in rat resident macrophages; assay: LPS-/IFN-γ-induced TNF-α production (ELISA) in rat macrophages; format: cell-based; settings: for inhibition at 20000 µM: Rattus norvegicus, Macrophage
# Method: Resident macrophages cultured in serum-free RPMI 1640 medium received 20 mM NAC or 100 μM PDTC 2 h before the addition of stimuli. When stimuli were used separately their concentrations were: LPS, 1.0 μg/ml; IFN-γ, 200 U/ml, and when they were used together, their concentrations were: LPS, 0.2 μg/ml; IFN-γ, 50 U/ml. Supernatants were collected 24 h after the addition of stimuli to measure TNF-α concentration using ELISA as described.
# [5] = tested on: sterol synthesis; settings: Sinensky et al., 1991; read-out: IC50 for inhibition of sterol synthesis; cited from earlier work
smiles,measurement,setting,value
"O=C([O-])Cc1ccccc1.[Na+] [NaPA, sodium salt of phenylacetic acid]",cytotoxicity at higher doses,[1],cytotoxic to the X-ALD fibroblasts
"CC(=O)N[C@@H](CS)C(=O)O [NAC, N-acetyl cysteine]",TNF-α-induced production of ceramide,[2],"potently blocked the TNF-α-induced production of ceramide in microglia, oligodendrocytes and C6 glial cells; also recorded: potently blocked the TNF-α-induced production of ceramide in microglia, oligodendrocytes, and C6 glial cells"
same,ceramide formation and DNA fragmentation / apoptosis,[3],inhibited the induction of ceramide formation and DNA fragmentation; also recorded: had no effect on C2-ceramide-mediated apoptosis in oligodendrocytes
same,TNF-α,"[4]; LPS 0.2 μg/ml + IFN-γ 50 U/ml, 20 mM NAC or 100 μM PDTC 2 h before, 24 h",2.3 ± 0.2 ng/24 h/mg protein
same,TNF-α,"[4]; LPS 1.0 μg/ml, 20 mM NAC or 100 μM PDTC 2 h before, 24 h",1.6 ± 0.3 ng/24 h/mg protein
same,inhibition at 20000 µM,"[4]; LPS 0.2 μg/ml + IFN-γ 50 U/ml, 20 mM NAC or 100 μM PDTC 2 h before",93%
same,inhibition at 20000 µM,"[4]; LPS 1.0 μg/ml, 20 mM NAC or 100 μM PDTC 2 h before",92%
same,TNF-α,"[4]; antioxidant alone (20 mM NAC or 100 μM PDTC), no stimulus",0.6 ± 0.2 ng/24 h/mg protein
CC[C@H](C)C(=O)O[C@H]1C[C@@H](C)C=C2C=C[C@H](C)[C@H](CC[C@@H]3C[C@@H](O)CC(=O)O3)[C@H]21 [Lovastatin],IC50,[5],10 nM
